Reference: US20090197269A1, “Translocation and mutant CSF1R Kinase in human leukemia” (CELL SIGNALING TECHNOLOGY, INC., priority 2006, published 2009)

What was measured:
CMK = assay: MTT cell proliferation assay, control cells; format: cell-based, human; settings: control cells (CMK negative control), 48 hour MTT
STAT5 and ERK = assay: Western blot of downstream target phosphorylation in MKPL-1 cells; format: cell-based, human; settings: Imatinib

Cc1ccc(NC(=O)c2ccc(CN3CCN(C)CC3)cc2)cc1Nc1nccc(-c2cccnc2)n1 [Imatinib]
inhibition of cell growth (CMK): the control cells are not | phosphorylation of downstream target STAT5 and ERK (STAT5 and ERK): inhibited as well
